Measurements reported in patent publication US5167616A, “Iontophoretic delivery method” (priority 1989, dated 1992).
“And” between values parts separate entries of the source, which are not always exact repeats. Equal values may be shown once.

Assay: Iontophoretic transdermal flux of metoclopramide through human cadaver skin (heat-stripped epidermis, two-compartment permeation test cell)
Format: in vitro ADME
Conditions: for Ratio of Average Flux-to-Power: power from voltage at 3.75 hours
Description: The transdermal flux of metoclopramide HC1 through samples of human cadaver back skin was measured using a polycarbonate test cell in which the skin sample to be tested is secured between a donor compartment and a receptor compartment. […] The area of the skin samples available for transport was 1.26 cm^2. The test cell device was maintained at a temperature of 32° C. using an aluminum block heat exchanger. An anode comprising a disk of silver foil having a thickness of 0.025 mm was present in the donor compartment while a cathode comprising a sintered disk of powdered silver metal and silver chloride was present in the receptor compartment. Thus, the reduction of silver ions to silver metal occurred at the cathode, while the oxidation of silver to silver ions took place at the anode.
Human cadaver skin was used for the permeation studies. Before securing the skin samples between the donor and the receptor compartment of the test cell, the skin was first heat-stripped by immersing the skin sample in water maintained at 60° C. for 90 seconds allowing the epidermis layer to be separated from the dermis. Circular epidermis samples having a diameter of 2.22 cm were cut using a gasket cutting punch. The epidermis samples were then mounted in the permeation test cell with the stratum corneum side facing the donor compartment.
The electrodes of the test cell were then connected to a Model 363 Potentiostat/Galvanostat, made by EG&G Princeton Applied Research, Princeton, NJ, which supplied a constant level of direct current of 126 μA or 100 μA/cm^2.
The test cell was in operation for four hours with each skin sample. During operation, metoclopramide was iontophoretically delivered from the donor solution through the cadaver skin into the receptor solution. The receptor solution was sampled once every hour over the four hour period. The entire volume (2 ml) of receptor solution was collected and replaced with fresh solution at each sampling point. The metoclopramide concentration in the receptor solution was determined by UV absorbance at 310 nm using a spectrophotometer manufactured by Hewlett Packard, of Palo Alto, CA, Model No. 8452A. Each flux data point shown in FIG. 4 was an average value from three skin specimens, all three specimens having been taken from the same cadaver.
The voltage for each skin sample was monitored throughout the experiment. A representative voltage was measured at 3.75 hours after start of operation for each skin sample and is recorded in Table 2. The power was calculated by multiplying the measured voltage at 3.75 hours by the applied current (i.e., 100 μA/cm^2).
The same equipment and procedures described in Example 1 were used to test human cadaver skin taken from the following sites of the same cadaver tested in Example 1: abdomen, upper arm, forearm, chest and hip/thigh. The average flux of metoclopramide through these skin sites is also plotted in FIG. 4. […] In general, the flux of metoclopramide through back skin was about 50% to 150% higher than the metoclopramide flux through the other tested skin sites.

## CCN(CC)CCNC(=O)c1cc(Cl)c(N)cc1OC [metoclopramide]
  Flux through back skin, increase over flux through the other tested skin sites: 50-150%
  Flux through human back skin compared with the other tested skin sites (in words): significantly higher flux
Abdomen skin, mean of 3 samples
  Average Ratio of Average Flux-to-Power: 336 μg/cm^2 · hr .multido
Abdomen skin
  Ratio of Average Flux-to-Power: 347 μg/cm^2 · hr .multido and 277 μg/cm^2 · hr .multido and 384 μg/cm^2 · hr .multido
Back skin, mean of 6 samples
  Average Ratio of Average Flux-to-Power: 431 μg/cm^2 · hr .multido
Chest skin, mean of 3 samples
  Average Ratio of Average Flux-to-Power: 204 μg/cm^2 · hr .multido
Chest skin
  Ratio of Average Flux-to-Power: 205 μg/cm^2 · hr .multido and 196 μg/cm^2 · hr .multido and 211 μg/cm^2 · hr .multido
Forearm skin, mean of 3 samples
  Average Ratio of Average Flux-to-Power: 230 μg/cm^2 · hr .multido
Hip/Thigh skin, mean of 3 samples
  Average Ratio of Average Flux-to-Power: 222 μg/cm^2 · hr .multido
Hip/Thigh skin
  Ratio of Average Flux-to-Power: 164 μg/cm^2 · hr .multido and 305 μg/cm^2 · hr .multido and 197 μg/cm^2 · hr .multido
Upper Arm skin, mean of 2 samples
  Average Ratio of Average Flux-to-Power: 307 μg/cm^2 · hr .multido
Back skin, followed by the abdomen and upper arm, Table 2
  Average ratio of average flux-to-power, ranking of skin sites (in words): highest average ratio of average flux-to-power
